In patent publication US4973586A, “Fused benzazepines, compositions of, and medical use thereof” (Schering Corporation, priority 1988, dated 1990):
Structures can show the parent of a compound that is named as a salt. Where two headings read alike, the source gives them in different places.

Experiments:
[1] = target: T1, D-2 receptor (Rattus norvegicus, UniProt P61169); test: Competitive inhibition assay, displacement of 3H-spiperone (D-2 receptor binding); set-up: species or system rat (male Sprague-Dawley, striatal tissue)
T1 construct: Striatal tissue was excised, pooled, and homogenized; from tissue; host or cells: rat striatum, washed membrane pellet (male Sprague-Dawley rats, Charles River)
Description: (§1) Many compounds capable of effecting reproducible physiological changes in neural tissues are believed to operate by binding at one or more receptor sites.
(§2) A methodology for characterization of D-1 and D-2 receptor binding and an interpretation of the data are described by Billard et al., Life Sciences 35, 1885 (1984) in which the binding of the benzazepine (R)-(+)-8-chloro-2,3,4,5-tetrahydro-3-methyl-5-phenyl-1H- 3-benzazepin-7-ol hemimaleate (SCH 23390) to the dopamine D-1 receptor is characterized. A selectivity for D-1 receptor binding as compared to D-2 receptor binding is believed to confer the therapeutic advantage of avoiding troublesome and potentially irreversible neurological side effects associated with D-2 receptor occupancy.
(§3) Tritiated SCH 23390 and tritiated spiperone (a potent D-2 receptor ligand) were obtained as described in the Billard et al. reference supra and serially diluted in 0.05M Tris buffer, pH 7.4, as required. Compounds of this invention were synthesized as disclosed herein and diluted in 0.05M Tris buffer, pH 7.4, as required.
(§4) Male Sprague-Dawley rats (200 to 250 g) from Charles River Breeding Laboratories, Mass. were used to obtain brain tissue. The rats were humanely sacrificed and their brains removed and placed on ice. Striatal tissue was excised, pooled, and homogenized (Brinkman Polytron, 10 sec) in 100 volumes (w/v) of ice cold 50 mM Tris buffer, pH 7.4 (at 25° C.). The homogenate was centrifuged at 20,000 xg for 10 min. The resultant pellet was rehomogenized in Tris buffer and centrifuged again. The final pellet was resuspended in 50 mM Tris buffer pH 7.4 containing 120 mM NaCl, 5 mM KCl, 2 mM CaCl2, and 1 mM MgCl2.
(§5) Polypropylene incubation tubes received 100 μl of the individual test compounds at various concentrations dissolved or suspended in 0.05M Tris, pH 7.4 containing 4 mg/ml methylcellulose, 100 μl of a solution of ^3 H-SCH 23390 in Tris buffer (final reaction mixture concentration=0.3 nM) or 100 μl of a solution of ^3 H-spiperone in Tris buffer (final concentration=0.2 nM) and 800 μl of tissue suspension (ca. 3 mg/assay). Tubes were incubated at 37° C. for 15 minutes and rapidly vacuum filtered through Whatman GF/B filters and rinsed 4 times with 4 ml of ice cold 50 mM Tris buffer, pH 7.4. The filters were transferred to scintillation vials, equilibated with 10 ml of scintillant (Scintosol, Isolab, Inc.) for 16 hours at 25° C. and the radioactivity determined in a liquid scintillation counter. Ki values were determined as described by Billard et al. using the relationship Ki = IC50 /(1+([L]/KD)) wherein IC50 =concentration of test drug necessary to displace 50% of specifically bound ^3 H-Sch 23390, [L]=concentration of radioligand used in the assay, and KD =dissociation constant.

[2] = target: T2, dopamine D-1 receptor (Rattus norvegicus, UniProt P18901); test: Competitive inhibition assay, displacement of 3H-SCH 23390 (D-1 receptor binding); set-up: species or system rat (male Sprague-Dawley, striatal tissue)
T2 construct: Striatal tissue was excised, pooled, and homogenized; from tissue; host or cells: rat striatum, washed membrane pellet (male Sprague-Dawley rats, Charles River)
Description: as §1, §2, §3, §4, §5

[3] = Conditioned avoidance suppression (CAR) in rats; format: in vivo; conditions: lowest dose significantly (P≤0.05) reducing avoidance responding, rat, in mg/kg
Experimental: A series of experiments was carried out to assess the ability of the compounds of this invention to suppress the conditioned avoidance response (CAR) in rats.
Rats were required to jump onto a platform located 6.75 inches (17.15 cm) above the grid floor of an experimental chamber in response to a 5-second tone to avoid a 10-second foot shock (0.6 ma). Each experimental session consisted of 20 such trials presented at 30-second intervals. A correct CAR is scored whenever the rat jumps onto the platform during the tone (prior to foot shock). An escape response is scored when the rat jumps onto the platform during a shock. A response failure is defined as the lack of an escape response during the 10-second shock period.
Groups of 6-8 rats were trained in two consecutive days (total of 40 trials). Rats that reached criterion on day 2 (correct CARs on 16 or more of the 20 trials) were treated with either a test drug or vehicle on day 3. Suppression of CAR was analyzed statistically using Student's t-test comparing the performance of rats on day 2 with their performance following drug on day 3.

[4] = Squirrel monkey conditioned avoidance response (CAR) test; format: in vivo; conditions: for MEAN (±SE) NUMBER OF […] 6 HOURS POST-TREATMENT: 10 mg/kg p.o., vehicle 59.1 + 0.9 (N=7); for ability to significantly decrease the number of avoidances six hours after dosing (duration): 10 mg/kg po, six hours prior to testing; for ED50: Primates, po
Description: This test was designed to measure the effective duration of candidate compounds.
Male or female squirrel monkeys weighing 800-1200 g housed one per cage were utilized. Initially each monkey was taught to terminate a 3 mA electric shock delivered through the grid floor of the test cage and an overlapping tone by depressing a lever in the cage.
In the second phase of the testing, a ten second tone is turned on prior to the shock component. A lever press during the sounding of the tone terminates the tone and prevents the occurrence of the shock component and is denoted as an "avoidance".
The compound testing was commenced after three consecutive days of re-testing. […] The monkey must achieve at least an 85% correct avoidance before drug testing commences. If this minimal avoidance level is achieved, the next day the monkey is orally dosed or injected with the subject compounds in the appropriate vehicle and the number of avoidances are recorded. An animal is defined as having been "affected" by any drug treatment if there is a 50% loss of avoidance behavior relative to the performance of the animal when only the vehicle was injected. The minimal effective dose (MED) is defined as that dose producing an effect in at least 50% of the animals.
A test was conducted to determine the effective duration of a compound of the present invention, 6,7,7a,8,9,13b-hexahydro-3-chloro-2-hydroxy-7-methyl-5H-benzo[ d]naphtho[2,1-b]azepine, denoted as Compound A, compared to a known compound, (d)-7-chloro-8-hydroxy-3-methyl-1-phenyl-2,3,4,5-tetrahydro-1h-3-benzazepine maleate, denoted as Compound B (Sch 23390)
The duration of each compound was determined by administering a 10 mg/kg po dose six hours prior to testing.

[5] = rat striatum, 3H-spiperone 0.2 nM, pH 7.4, 37° C., 15 min, read-out: Ki, 3H-Spip
[6] = rat striatum, 3H-SCH 23390 0.3 nM, pH 7.4, 37° C., 15 min, read-out: Ki, 3H-23390

T2 sequence (P18901 whole entry): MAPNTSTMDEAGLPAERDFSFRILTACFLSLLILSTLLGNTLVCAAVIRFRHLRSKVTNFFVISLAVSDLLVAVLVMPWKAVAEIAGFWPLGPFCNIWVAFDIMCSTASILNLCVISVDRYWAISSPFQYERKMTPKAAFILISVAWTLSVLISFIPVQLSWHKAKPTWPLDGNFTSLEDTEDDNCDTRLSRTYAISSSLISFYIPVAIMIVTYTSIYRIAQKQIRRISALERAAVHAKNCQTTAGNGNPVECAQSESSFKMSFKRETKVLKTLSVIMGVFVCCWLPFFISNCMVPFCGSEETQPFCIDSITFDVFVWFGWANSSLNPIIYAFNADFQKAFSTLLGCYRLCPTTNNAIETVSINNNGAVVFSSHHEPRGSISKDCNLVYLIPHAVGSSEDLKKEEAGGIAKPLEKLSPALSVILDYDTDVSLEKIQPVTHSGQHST
T1 sequence (P61169 whole entry): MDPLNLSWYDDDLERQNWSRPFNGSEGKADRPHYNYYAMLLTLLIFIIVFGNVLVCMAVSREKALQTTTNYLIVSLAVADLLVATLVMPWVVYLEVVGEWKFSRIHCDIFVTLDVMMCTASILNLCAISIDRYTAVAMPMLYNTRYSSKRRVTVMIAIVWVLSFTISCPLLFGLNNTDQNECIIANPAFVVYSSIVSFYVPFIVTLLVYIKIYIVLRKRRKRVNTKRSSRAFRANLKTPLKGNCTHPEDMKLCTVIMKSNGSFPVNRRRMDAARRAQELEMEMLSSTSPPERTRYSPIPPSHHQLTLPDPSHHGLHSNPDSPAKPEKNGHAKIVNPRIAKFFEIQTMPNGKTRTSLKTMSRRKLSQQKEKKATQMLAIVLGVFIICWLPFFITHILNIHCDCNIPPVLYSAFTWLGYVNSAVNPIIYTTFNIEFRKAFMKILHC

Row | Ki [2, 6] [nM] | Structure (SMILES) | Ki [1, 5] [nM] | Ki [1] [nM] | CAR (MED) ([3]; po) | also measured
1 | – | CN1CCc2cc(Cl)c(O)cc2[C@@H]2c3ccccc3C[C@H]21 (relative stereo) [CH2, 0, trans, Cl, OH, trans-5,6,7,7a,8,12b-Hexahydro-2-hydroxy-3-chloro-7-methyl-benz[d]indeno[2,1-b]azepine] | 2600 | – | – | Ki [2]: 10 nM
2 | – | COc1cc2c(cc1O)CCN(C)[C@@H]1CCc3ccccc3[C@H]21 (relative stereo) [CH2, 1, cis, HO, CH3O] | – | > 100000 | – | –
3 | – | COc1cc2c(cc1O)[C@H]1c3ccccc3CC[C@@H]1N(C)CC2 (relative stereo) [CH2, 1, trans, CH3O, OH, trans-6,7,7a,8,9,13b-Hexahydro-2-hydroxy-3-methoxy-7-methyl-5H-benzo[d]naphtho[2,1-b]azepine] | – | 2500 | 30 | Ki [2]: 23 nM; CAR (MED) ([3]; sc): 0.3-1
4 | – | CN1CCc2cc(Cl)c(N)cc2[C@H]2c3ccccc3CC[C@@H]21 (relative stereo) [CH2, 1, trans, Cl, NH2] | 4170 | – | 3 | Ki [2]: 70 nM
5 | – | CN1CCc2cc(Cl)c(O)cc2[C@H]2c3ccccc3CC[C@@H]21 (relative stereo) [CH2, 1, trans, Cl, OH, trans-6,7,7a,8,9,13b-Hexahydro-3-chloro-2-hydroxy-7-methyl-5H-benzo[d]naphtho[2,1-b]azepine] | – | – | 30 | CAR (MED) ([3]; sc): 0.3
6 | – | CN1CCc2ccc(O)cc2[C@H]2c3ccccc3CC[C@@H]21 (relative stereo) [CH2, 1, trans, H, OH, trans-6,7,7a,8,9,13b-Hexahydro-2-hydroxy-7-methyl-5H-benzo[d]naphtho[2,1-b]azepine] | 3500 | – | – | Ki [2]: 80 nM
7 | – | COc1cc2c(cc1O)CCN(C)[C@H]1CCc3ccccc3[C@H]21 (relative stereo) [CH2, 1, trans, HO, CH3O, trans-6,7,7a,8,9,13b-Hexahydro-3-hydroxy-2-methoxy-7-methyl-5H-benzo[d]naphtho[2,1-b]azepine] | – | > 100000 | – | –
8 | 292 | COc1cc2c(cc1O)[C@H]1c3ccccc3CCC[C@@H]1N(C)CC2 (relative stereo) [CH2, 2, trans, CH3O, OH] | > 100000 | – | – | CAR (MED) ([3]; sc): 10
9 | 7730 | COc1cc2c(cc1O)CCN(C)[C@H]1CCCc3ccccc3[C@H]21 (relative stereo) [CH2, 2, trans, HO, CH3O] | > 100000 | – | – | CAR (MED) ([3]; sc): 10
10 | 121 | CN1CCc2ccc(O)cc2[C@@H]2c3ccccc3OC[C@H]21 (relative stereo) [O, 1, trans, H, OH, trans-6,6a,7,8,9,13b-Hexahydro-7-methyl-[1]benzopyrano[4,3-a][3]benzazepin-12-ol] | – | – | – | –
11 | – | CN1CCc2cc(Cl)c(O)cc2[C@H]2c3ccccc3CC[C@@H]21 [CH2, 1, 7b(R):7a(S)(-), Cl, OH, (-)-trans-6,7,7a,8,9,13b-Hexahydro-3-chloro-2-hydroxy-7-methyl-5H-benzo[b]naphtho[2,1-b]azepine] | – | – | 30 | –
12 | – | CN1CCc2cc(Cl)c(O)cc2[C@@H]2c3ccccc3CC[C@H]21 [CH2, 1, 7b(S):7a(R)(+), Cl, OH, (+)-trans-6,7,7a,8,9,13b-hexahydro-3-chloro-2-hydroxy-7-methyl-5H-benzo[d]naphtho[2,1-b]azepine] | – | – | > 30 | –
13 | – | CN1CCc2cc(Cl)c(O)cc2C2c3ccccc3CCC21 (stereo not shown) [Compound A, 6,7,7a,8,9,13b-hexahydro-3-chloro-2-hydroxy-7-methyl-5H-benzo[d]naphtho[2,1-b]azepine] | – | – | – | MEAN (±SE) NUMBER OF […] 6 HOURS POST-TREATMENT [4]: 23.9 + 7.5; ability to significantly decrease the number of avoidances six hours after dosing (duration) [4]: significant decrease in the number of avoidances (≤0.05); ED50 ([4]; 1 h, administered 60 minutes prior to the test, read-out: ED50): ~1.6 mg/kg
14 | – | CN1CCc2cc(Cl)c(O)cc2[C@@H](c2ccccc2)C1 [Compound B, (d)-7-chloro-8-hydroxy-3-methyl-1-phenyl-2,3,4,5-tetrahydro-1h-3-benzazepine maleate, reference compound] | – | – | – | MEAN (±SE) NUMBER OF […] 6 HOURS POST-TREATMENT [4]: 59.7 + 0.3; ability to significantly decrease the number of avoidances six hours after dosing (duration) [4]: inactive; ED50 ([4]; 0.5 h): 2.4 mg/kg

Row | Structure (SMILES) | Ki [2, 6] [nM] | Ki [1, 5] [nM] | Ki [1] [nM] | CAR (MED) ([3]; po) | also measured
15 | COc1cc2c(cc1O)[C@H]1c3ccccc3CC[C@H]1N(C)CC2 (relative stereo) [CH2, 1, cis, CH3O, OH] | 6450 | – | > 100000 | – | –
16 | Cc1cc2c(cc1O)[C@H]1c3ccccc3CC[C@@H]1N(C)CC2 (relative stereo) [CH2, 1, trans, CH3, OH, trans-6,7,7a,8,9,13b-hexahydro-2-hydroxy-3-methyl-7-methyl-5 H-benzo[d]naphtho[2,1-b]azepine] | 119 | – | 7200 | – | –
